Experimental data from patent publication US12583866B2, “Pyrido[2,3-b][1,4]oxazines or tetrahydropyrido[2,3-b][1,4]oxazepines as IAP antagonists” (BEIGENE, LTD., priority 2020, dated 2026).
Counter-ions that a name gives are not always drawn.

Key:
[1] = molecular target: T1, recombinant human XIAP-BIR3 protein (Homo sapiens, UniProt P98170); experiment: Recombinant human XIAP-BIR3 biochemical assay (HTRF, peptide displacement); settings: 3.7 nM XIAP-BIR3, 7.6 nM AbuRPF-K(5-Fam)-NH2 peptide, read-out: Protein binding IC50 (nM) XIAP
T1 construct: recombinant human XIAP-BIR3 protein; purchased Reaction biology APT-11-374
Description: III. Recombinant Human XIAP-BIR3 Biochemical Assay
(§1) Compounds disclosed herein were tested for blocking of recombinant human XIAP-BIR3 protein (Cat: APT-11-374, Reaction biology) with its peptide in an assay based on Homogeneous Time Resolved Fluorescence. 3.7 nM recombinant human XIAP-BIR3 protein was pre-incubated with a serial dilution of compounds disclosed herein (maximum concentration is 10 uM, 4-fold serially diluted, 10 points) at room temperature for 1 hour in an assay buffer containing 20 mM HEPES, pH 7.5, 50 mM NaCl, 0.005% Tween-20, 1 mM DTT. Then 7.6 nM AbuRPF-K(5-Fam)-NH2 (Cat: 709702, GL Biochem) was added to plate incubated at room temperature for 1 hour. Mab Anti-6His Tb cryptate Gold (Cat: 61HI2TLB, Cisbio Bioassays) was added to plate and further incubated at room temperature for 1 hour. The HTRF signals (ex337 nm, em520 nm/490 nm) were read on BMG PHERAstar FS instrument. The inhibition percentage of XIAP-BIR3 interaction with its peptide in presence of increasing concentrations of compounds was calculated based on the ratio of fluorescence at 520 nm to that at 490 nm. The IC50 for each compound was derived from fitting the data to the four-parameter logistic equation by Dotmatics and summarized in table 1.

[2] = molecular target: T2, recombinant human cIAP2-BIR3 protein (Homo sapiens, UniProt Q13489); experiment: Recombinant human c-IAP2-BIR3 biochemical assay (HTRF, peptide displacement); settings: 3.7 nM cIAP2-BIR3, 3.7 nM AbuRPF-K(5-Fam)-NH2 peptide, read-out: Protein binding IC50 (nM) c-IAP2
T2 construct: recombinant human cIAP2-BIR3 protein; purchased Reaction biology APT-11-372
Description: II. Recombinant Human c-IAP2-BIR3 Biochemical Assay
as §1, with “cIAP2-BIR3” for “XIAP-BIR3”, “APT-11-372,” for “APT-11-374,”, “3.7” for “7.6”

[3] = molecular target: T3, recombinant human cIAP1-BIR3 protein (Homo sapiens, UniProt Q13490); experiment: Recombinant human c-IAP1-BIR3 biochemical assay (HTRF, peptide displacement); settings: 1.2 nM cIAP1-BIR3, 3 nM AbuRPF-K(5-Fam)-NH2 peptide, read-out: Protein binding IC50 (nM) c-IAP1
T3 construct: recombinant human cIAP1-BIR3 protein; purchased Reaction biology APT-11-370
Description: I. Recombinant human c-IAP1-BIR3 biochemical assay
as §1, with “cIAP1-BIR3” for “XIAP-BIR3”, “APT-11-370,” for “APT-11-374,”, “1.2” for “3.7”, “3” for “7.6”, “AbuRPF-K (5-Fam)-NH2” for “AbuRPF-K(5-Fam)-NH2”

T2 sequence (Q13489 238-349 limits assumed): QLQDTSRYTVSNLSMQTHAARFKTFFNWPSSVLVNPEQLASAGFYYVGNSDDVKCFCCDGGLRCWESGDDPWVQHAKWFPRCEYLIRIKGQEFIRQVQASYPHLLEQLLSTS
T1 sequence (P98170 241-356 limits assumed): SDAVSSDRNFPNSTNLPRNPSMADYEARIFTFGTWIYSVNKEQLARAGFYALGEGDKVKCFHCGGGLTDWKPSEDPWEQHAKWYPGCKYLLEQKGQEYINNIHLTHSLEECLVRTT
T3 sequence (Q13490 253-363 limits assumed): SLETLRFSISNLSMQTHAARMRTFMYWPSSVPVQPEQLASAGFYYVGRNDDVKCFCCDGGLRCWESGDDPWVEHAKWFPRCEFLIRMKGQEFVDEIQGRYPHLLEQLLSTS

Structure (SMILES)	IC50 [1] [nM]	IC50 [2] [nM]	IC50 [3] [nM]
Cc1ccc([C@H]2COc3ncc(Cc4ccc(F)cc4)cc3N2C(=O)CN2C[C@@H](C)NC[C@@H]2CN2CCOC[C@H]2C)cc1 [Compound 30, 1-((S)-7-(4-fluorobenzyl)-2-(p-tolyl)-2,3-dihydro-1H-pyrido[2,3-b][1,4]oxazin-1-yl)-2-((2R,5R)-5-methyl-2-(((R)-3-methylmorpholino)methyl)piperazin-1-yl)ethan-1-one]	7.3	0.72	0.35
C[C@@H]1CN(CC(=O)N2CCOc3nc(C4(O)CC4)c(Cc4ccc(F)cc4)cc32)[C@@H](CN2CCOC[C@H]2C)CN1 [Compound 21, 1-(7-(4-fluorobenzyl)-6-(1-hydroxycyclopropyl)-2,3-dihydro-1H-pyrido[2,3-b][1,4]oxazin-1-yl)-2-((2R,5R)-5-methyl-2-(((R)-3-methylmorpholino)methyl)piperazin-1-yl)ethan-1-one]	41	5.75	2.6
C[C@@H]1CN(CC(=O)N2c3cc(Cc4ccc(F)cc4)c(-c4ccc(F)cc4)nc3OC[C@@H]2C)[C@@H](CN2[C@H](C)COC[C@H]2C)CN1 [Compound 113]	5.4	0.36	0.25
CCOc1nc2c(cc1Cc1ccc(F)cc1)N(C(=O)CN1C[C@@H](C)NC[C@@H]1CN1[C@H](C)COC[C@H]1C)[C@@H](C)CO2 [Compound 87]	3.3	0.23	0.18
C[C@@H]1CN(CC(=O)N2c3cc(Cc4ccc(F)cc4)c(C(=O)NC[C@@H]4CCCO4)nc3OC[C@@H]2C)[C@@H](CN2[C@H](C)COC[C@H]2C)CN1 [Compound 93]	4.6	0.46	0.19
C[C@@H]1CN(CC(=O)N2c3cc(Cc4ccc(F)cc4)c(C(=O)N4CCC(F)(F)CC4)nc3OC[C@@H]2C)[C@@H](CN2[C@H](C)COC[C@H]2C)CN1 [Compound 103, 1-((S)-6-(4,4-difluoropiperidine-1-carbonyl)-7-(4-fluorobenzyl)-2-methyl-2,3-dihydro-1H-pyrido[2,3-b][1,4]oxazin-1-yl)-2-((2R,5R)-2-(((3R,5R)-3,5-dimethylmorpholino)methyl)-5-methylpiperazin-1-yl)ethan-1-one]	5.1	0.43	0.24
CC1CN(C(=O)CN2C[C@@H](C)NC[C@@H]2CN2CCOC[C@H]2C)c2cc(Cc3ccc(F)cc3)c(Br)nc2O1 (stereo partly drawn) [Compound 11, 1-(6-bromo-7-(4-fluorobenzyl)-3-methyl-2,3-dihydro-1H-pyrido[2,3-b][1,4]oxazin-1-yl)-2-((2R,5R)-5-methyl-2-(((R)-3-methylmorpholino)methyl)piperazin-1-yl)ethan-1-one]	220	17	8
C[C@@H]1CN(CC(=O)N2CCOc3nc(C(N)=O)c(Cc4ccc(F)cc4)cc32)[C@@H](CN2CCOC[C@H]2C)CN1 [Compound 3, 7-(4-fluorobenzyl)-1-(2-((2R,5R)-5-methyl-2-(((R)-3-methylmorpholino)methyl)piperazin-1-yl)acetyl)-2,3-dihydro-1H-pyrido[2,3-b][1,4]oxazine-6-carboxamide formate]	23	3.2	1.5
CCC(=O)Nc1nc2c(cc1Cc1ccc(F)cc1)N(C(=O)CN1C[C@@H](C)NC[C@@H]1CN1[C@H](C)COC[C@H]1C)[C@@H](C)CO2 [Compound 117]	6.5	0.23	0.15
C[C@@H]1CN(CC(=O)N2c3cc(Cc4ccc(F)cc4)c(C(=O)NC[C@@H]4CCOC4)nc3OC[C@@H]2C)[C@@H](CN2[C@H](C)COC[C@H]2C)CN1 [Compound 95, (S)-1-(2-((2R,5R)-2-(((3R,5R)-3,5-dimethylmorpholino)methyl)-5-methylpiperazin-1-yl)acetyl)-7-(4-fluorobenzyl)-2-methyl-N—(((S)-tetrahydrofuran-3-yl)methyl)-2,3-dihydro-1H-pyrido[2,3-b][1,4]oxazine-6-carboxamide]	2.3	0.25	0.19
C[C@@H]1CN(CC(=O)N2c3cc(Cc4ccc(F)cc4)c(CO)nc3OC[C@@H]2C)[C@@H](CN2[C@H](C)COC[C@H]2C)CN1 [Compound 24]	4.49	0.24	0.15
C[C@@H]1CN(CC(=O)N2c3cc(Cc4ccc(F)cc4)cnc3OC[C@@H]2c2ccccc2)[C@@H](CN2CCOC[C@H]2C)CN1 [Compound 45, 1-((S)-7-(4-fluorobenzyl)-2-phenyl-2,3-dihydro-1H-pyrido[2,3-b][1,4]oxazin-1-yl)-2-((2R,5R)-5-methyl-2-(((R)-3-methylmorpholino)methyl)piperazin-1-yl)ethan-1-one]	8.5	0.65	0.34
Cc1nc2c(cc1Cc1ccc(F)cc1)N(C(=O)CN1C[C@@H](C)NC[C@@H]1CN1CCOC[C@H]1C)CCO2 [Compound 5, 1-(7-(4-fluorobenzyl)-6-methyl-2,3-dihydro-1H-pyrido[2,3-b][1,4]oxazin-1-yl)-2-((2R,5R)-5-methyl-2-(((R)-3-methylmorpholino)methyl)piperazin-1-yl)ethan-1-one]	18	1.1	0.7
C[C@@H]1CN(CC(=O)N2c3cc(Cc4ccc(F)cc4)c(C(=O)N4CC(O)C4)nc3OC[C@@H]2C)[C@@H](CN2[C@H](C)COC[C@H]2C)CN1 [Example 74, 2-((2R,5R)-2-(((3R,5R)-3,5-dimethylmorpholino)methyl)-5-methylpiperazin-1-yl)-1-((S)-7-(4-fluorobenzyl)-6-(3-hydroxyazetidine-1-carbonyl)-2-methyl-2,3-dihydro-1H-pyrido[2,3-b][1,4]oxazin-1-yl)ethan-1-one]	11	0.51	0.25
C[C@@H]1CN(CC(=O)N2c3cc(Cc4ccc(F)cc4)cnc3OC[C@@H]2c2ccccc2)[C@@H](CN2[C@H](C)COC[C@H]2C)CN1 [Compound 44]	20	0.93	0.36
CCOc1nc2c(cc1Cc1ccc(F)cc1)N(C(=O)CN1C[C@@H](C)NC[C@@H]1CN1CCOC[C@H]1C)CCO2 [Compound 17, 1-(6-ethoxy-7-(4-fluorobenzyl)-2,3-dihydro-1H-pyrido[2,3-b][1,4]oxazin-1-yl)-2-((2R,5R)-5-methyl-2-(((R)-3-methylmorpholino)methyl)piperazin-1-yl)ethan-1-one]	5.4	1.3	0.53
CCOC[C@H]1COc2ncc(Cc3ccc(F)cc3)cc2N1C(=O)CN1C[C@@H](C)NC[C@@H]1CN1CCOC[C@H]1C [Compound 37, 1-((S)-2-(ethoxymethyl)-7-(4-fluorobenzyl)-2,3-dihydro-1H-pyrido[2,3-b][1,4]oxazin-1-yl)-2-((2R,5R)-5-methyl-2-(((R)-3-methylmorpholino)methyl)piperazin-1-yl)ethan-1-one]	43	0.66	0.29
